The assay concerns the target T1, Grx (Lmo2344) (Listeria monocytogenes, UniProt Q8Y4T8).
T1 construct: CHYC active motif
T1 sequence (Q8Y4T8 1-88): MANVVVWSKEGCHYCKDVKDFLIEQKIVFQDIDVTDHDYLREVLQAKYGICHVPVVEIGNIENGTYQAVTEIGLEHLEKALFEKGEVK
Nature of the assay: insulin disulfide reduction, turbidity at […] nm. To be noted: electron donor, 1 mM DTT; 0.15 mM human insulin, pH 7.0, 2 mM EDTA; DTT also reduces insulin non-enzymatically. The class given is biochemical.

The values below come from paper PMC6844310, “Deletion of glutaredoxin promotes oxidative tolerance and intracellular infection in Listeria monocytogenes” (Virulence, 2019).

For the compound `OC(CS)C(O)CS` (stereo not shown) [DTT], the “insulin disulfide reduction, turbidity at 650 nm” value is “Using DTT as an electron donor, the recombinant Lmo2344 is able to catalyze the reduction”.
